Test results as given in patent US6451288B1, “Method of treating lung diseases with uridine 5′-diphosphate and analogs thereof” (The University of North Carolina at Chapel Hill, priority 1997, dated 2002).

Columns and labels:
sheep [1] = experiment: Mucociliary clearance in sheep; assay type: in vivo; conditions: 400 μmole nebulized
Description: Healthy adult ewes were given ^99mTc-labeled serum albumin (^99mTc-HCA) via a nebulized aerosol. The (^99mTc-HCA)(20 mCi) was administered over 5 minutes through a nasotracheal tube introduced under local anesthesia with 2% lidocaine. After administration of the ^99Tc-HCA, the animals were given the test compound UDP. The test compound was administered by nebulization in a volume of 4 mL over a period of 10-12 min. The test compound was given at a dose of 400 μmole. After the administration of the test compound, the animals were extubated. Clearance of the radiolabeled particles was monitored with a gamma camera. Measurements were made a 0, 5, 10, 15, 20, 25, 30, 35, 40, 45, 50, 55, 60, 75, 90, 105 and 120 minutes. Results of this study (n=7) have shown that the test compound promotes clearance of radiolabeled particles when compared to the saline control. […] The response to UDP was maximal at 60 minutes and was maintained for the second hour of the study. The results of this experiment are illustrated graphically in FIG. 6.

[2] = test system: human nasal epithelial cells; experiment: Cytosolic Ca2+ measurement (Fura-2) in human nasal epithelial cells; assay type: cell-based
Description: (§1) Human nasal epithelial cells were harvested from turbinates using protease XIV (Sigma, St. Louis, Mo.) for 24-48 h at 4° C., as previously described. R. Wu, et al., Am. Rev. Respir. Dis. 132, 311-320 (1985). Cytosolic Ca^2+ and inositol phosphate measurements were made on nasal cell monolayers plated on porous Transwell Col filters (pore diameter 0.45 μm; Costar, Cambridge, Mass.) and maintained in Ham's F12 media supplemented with 10 ng/mL epidermal growth factor, 3.75 ng/mL endothelial cell growth factor, 500 ng/mL hydrocortisone, 5 ng/mL insulin, and 1 mM CaCl2 (Ham's F12+4X medium). Assays were carried out 7 to 10 days after seeding, a time coincident with the development of the maximal transepithelial potential difference according to N. Nakahata & T. K. Harden, Biochem. J. 241, 337-344 (1987).
(§2) Nasal cells grown on Transwell Col filters affixed to O-rings were maintained in F12+4X medium and studied 7-10 days after cell plating as described above. For Ca^2+i measurements, cells were loaded with Fura-2 and mounted in a miniature Ussing chamber over an objective of a microscope (Zeiss) coupled to a microfluorimeter, and cytosolic Ca^2+i levels were quantitated as previously described in Paradiso et al., supra. The fluorescence intensity ratio (excitation 340/380; emission λ 450 nm) was collected from a field of 30-40 nasal cells on monolayers and converted to Ca^2+ as previously described in E. H. Larsen et al, J. Physiol. 424, 109-131 (1990). For simultaneous measurements of Cl^− secretion, the transepithelial potential difference (TEP) was measured by a Voltage-Clamp/Pulse Generator (Model VCC600, Physiologic Instruments, San Diego, Calif.) and recorded on a two-channel recorder (Linsesis Model L200S). To calculate changes in Cl^− secretory current (ΔICl^−), a defined 1 sec current pulse was delivered across the monolayer every 10 sec. The nasal tissue was converted from its native Na^+ absorptive state to a Cl^− secretory state by exposing monolayers to a luminal medium containing 0 Na^+/low Cl^− and to a basolateral medium of Krebs bicarbonate Ringer solution.

sheep [3] = experiment: Tracheal mucus velocity in sheep; assay type: in vivo; conditions: 400 μmole nebulized
Text: To measure the effect of UDP on tracheal mucus velocity (TMV), the nasal passages of conscious adult ewes were anesthetized with a 2% lidocaine solution. After local anesthesia was produced, a modified endotracheal tube (7.5 mm) was placed such that the cuff was just below the vocal cords (as verified by fluoroscopy). Inspired air was warmed and humidified. The cuff on the endotracheal tube was inflated only during administration of the test compound to minimize possible impairment of TMV by the cuff. Test compounds were administered by nebulization in a volume of 4 mL over a period of 10-12 min. TMV was measured by fluoroscopy. Ten to twenty radiopaque disks (Teflon/bismuth trioxide; 1 mm diameter; 0.8 mm thick, weighing 1.8 mg) were introduced into the trachea through a modified suction catheter with a puff of compressed air (3-4 L/min). Velocities of the individual disks were recorded on videotape form a portable image intensifier unit. Individual disk velocities were calculated by measuring the distance traveled by each disk during a 1 min observation period. Values reported are the means of the individual disk velocities. A collar was worn by the sheep, which was used as a standard to correct for magnification errors inherent in the fluoroscope.

[4] = test system: human nasal epithelial cells; experiment: [3H]inositol phosphate formation in polarized human nasal epithelial cells; assay type: cell-based
Description: as §1
Confluent human nasal epithelial cells as described in Example 1 were labeled for 18 h in inositol-free DMEM containing 4.5g/L glucose and 5 μCi/mL of [^3H]myo-inositol. These cells were pre-incubated with 10 mM LiCl and challenged with agonists for an additional 10 min. No changes of medium were made subsequent to addition of [^3H]myo-inositol to avoid release of endogenous ATP from stressed cells. E. R. Lazarowski et al., Br. J Pharmacol. 116, 1619-1627 (1995). Incubations were terminated by addition of 5% ice-cold trichloroacetic acid and the resultant [^3H]inositol phosphates were separated on Dowex AG1-X8 columns as described in A. M. Paradiso et al., Nature 377, 643-646 (1995).

P2Y2 receptor = P2Y2 receptor (Homo sapiens, UniProt P41231); conditions: UTP-free UDP; cited from earlier work
Chain of P2Y2 receptor (P41231 whole entry): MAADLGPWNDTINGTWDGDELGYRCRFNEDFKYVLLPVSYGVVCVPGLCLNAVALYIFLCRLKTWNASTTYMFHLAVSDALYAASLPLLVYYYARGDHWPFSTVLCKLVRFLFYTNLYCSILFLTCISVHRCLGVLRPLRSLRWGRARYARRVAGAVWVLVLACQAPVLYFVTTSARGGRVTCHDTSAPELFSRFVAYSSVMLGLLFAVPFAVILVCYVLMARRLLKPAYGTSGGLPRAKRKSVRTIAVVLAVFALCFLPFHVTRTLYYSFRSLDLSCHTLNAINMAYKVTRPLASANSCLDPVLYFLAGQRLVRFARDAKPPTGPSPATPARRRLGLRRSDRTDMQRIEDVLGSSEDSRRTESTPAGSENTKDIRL

[5] = test system: human nasal epithelial cells; experiment: Cl- secretion (transepithelial potential difference, Ussing chamber) in human nasal epithelial cells; assay type: cell-based
Description: as §1, §2

[6] = subsequent 3 μM then 10 μM UDP, mucosal (desensitization)

O=c1ccn([C@@H]2O[C@H](COP(=O)(O)OP(=O)(O)O)[C@@H](O)[C@H]2O)c(=O)[nH]1 [UDP, uridine 5′-diphosphate]
Time of maximal response (clearance) (sheep [1]): 60 min | Maximal effect, clearance of radiolabeled particles (sheep [1]; n=7): 33.6±1.6 % clearance | ΔCa2+ (mobilization of intracellular calcium) ([2]; 3 μM, mucosal bath, first addition): 66 ± 12 nM | Maximal calcium mobilization effect relative to response with mucosal UTP ([2]; mucosal, 100 μM): approximately one half | ΔCa2+ after subsequent addition [2, 6]: 0 | Time of maximal effect after administration (TMV) (sheep [3]): 15 min | Accumulation of [3H]inositol phosphates, mucosal ([4]; 100 μM, mucosal): marked accumulation | Effect on inositol phosphate accumulation, serosal bath ([4]; 100 μM, serosal): negligible effect | EC50 ([4]; Homo sapiens, Epithelial cell, 10 min, added to mucosal medium, 10 min, read-out: EC50 for stimulating inositol phosphate formation): 190 ± 27 nM | Maximal inositol phosphate effect relative to response with mucosal UTP ([4]; mucosal, 100 μM): approximately one half | Activity at the P2Y2 receptor (P2Y2 receptor): essentially inactive | ΔICl-, mucosal ([5]; 3 μM, mucosal): 16±3 μA·cm^2 | Cl- secretory response (ΔICl-) ([5]; 3 μM, mucosal bath, first addition, n=8): −16.3±3 μA/cm^2 | ΔICl-, serosal ([5]; 3 μM, serosal): 0±0 μA·cm^2 | Magnitude of Cl- secretion response relative to mucosal UTP response ([5]; mucosal): approximately one half | ΔICl- after subsequent addition [5, 6]: 0
